Assays:
Conditions in all cases: 72 h
[1] = tested on: HepG2; test: drug sensitivity score (DSS) for viability; higher = more toxic; extreme values may be limits of the assay
[2] = tested on: U2OS; test: as above
[3] = tested on: Calu-3; test: as above
[4] = tested on: Caco-2; test: as above
[5] = tested on: HepG2; test: relative viability EC50 (midpoint between 100% and the lowest measured viability); higher = less toxic
[6] = tested on: U2OS; test: as above
[7] = tested on: Calu-3; test: as above
[8] = tested on: Caco-2; test: as above
[9] = tested on: HepG2; test: cell viability relative to DMSO; higher = less toxic
[10] = tested on: U2OS; test: as above
[11] = tested on: Calu-3; test: as above
[12] = tested on: Caco-2; test: as above
[13] = tested on: Vero E6; test: drug sensitivity score (DSS) for viability; higher = more toxic; extreme values may be limits of the assay
[14] = tested on: Vero E6; test: relative viability EC50 (midpoint between 100% and the lowest measured viability); higher = less toxic
[15] = tested on: Vero E6; test: cell viability relative to DMSO; higher = less toxic

Row | Compound | drug sensitivity score [1] | drug sensitivity score [2] | drug sensitivity score [3] | drug sensitivity score [4] | relative viability EC50 [5] [µM] | relative viability EC50 [6] [µM] | relative viability EC50 [7] [µM] | relative viability EC50 [8] [µM] | cell viability ([9]; 1 nM) [%] | cell viability ([9]; 10 nM) [%] | cell viability ([9]; 100 nM) [%] | cell viability ([9]; 1000 nM) [%] | cell viability ([9]; 10000 nM) [%] | cell viability ([10]; 1 nM) [%] | cell viability ([10]; 10 nM) [%] | cell viability ([10]; 100 nM) [%] | cell viability ([10]; 1000 nM) [%] | cell viability ([10]; 10000 nM) [%] | cell viability ([11]; 1 nM) [%] | cell viability ([11]; 10 nM) [%] | cell viability ([11]; 100 nM) [%] | cell viability ([11]; 1000 nM) [%] | cell viability ([11]; 10000 nM) [%] | cell viability ([12]; 1 nM) [%] | cell viability ([12]; 10 nM) [%] | cell viability ([12]; 100 nM) [%] | cell viability ([12]; 1000 nM) [%] | cell viability ([12]; 10000 nM) [%] | drug sensitivity score [13] | relative viability EC50 [14] [µM] | cell viability ([15]; 1 nM) [%] | cell viability ([15]; 10 nM) [%] | cell viability ([15]; 100 nM) [%] | cell viability ([15]; 1000 nM) [%] | cell viability ([15]; 10000 nM) [%]
1 | CC[C@H](C)[C@H](NC(=O)[C@H](Cc1ccc(O)cc1)NC(=O)[C@@H](NC(=O)[C@H](CCCNC(=N)N)NC(=O)[C@@H](N)CC(=O)O)C(C)C)C(=O)N[C@@H](Cc1c[nH]cn1)C(=O)N1CCC[C@H]1C(=O)O [TXA127] | 0 | 0 | 0 | 0 | > 10 | > 10 | > 10 | > 10 | 96.2 | 105 | 89.3 | 104 | 92.4 | 98.9 | 98.7 | 99.1 | 93.3 | 96.9 | 95.2 | 90.6 | 97.9 | 89.2 | 105 | 104 | 110 | 98.2 | 99.4 | 89.4 |  |  |  |  |  |  | 
2 | OCC[N+]12CN3CN(CN(C3)C1)C2 [Y-11] | 0 |  | 0 | 0 | > 10 |  | > 10 | > 10 | 97.6 | 90.5 | 102 | 102 | 110 |  |  |  |  |  | 97.6 | 90.1 | 98 | 102 | 99.1 | 102 | 108 | 97.2 | 101 | 99.2 | 0 | > 10 | 102 | 99.1 | 106 | 96.2 | 100
3 | COc1cc(Nc2c(C#N)cnc3cc(OCCCN4CCN(C)CC4)c(OC)cc23)c(Cl)cc1Cl [bosutinib] | 7.6 | 4.7 |  | 5.2 | 1.66 | 2.88 |  | 1.64 | 105 | 101 | 101 | 81.6 | 15.9 | 95.4 | 101 | 102 | 97.1 | 22.7 |  |  |  |  |  | 95.2 | 99.1 | 107 | 87.1 | 42.6 | 8.6 | 1.34 | 98.7 | 100 | 99.9 | 72.5 | 15.2
4 | CN(C)CCOC(c1ccc(Cl)cc1)c1ccccn1 (stereo not given) [carbinoxamine] | 0 |  | 0 | 0 | > 10 |  | > 10 | > 10 | 99.9 | 95.8 | 102 | 104 | 99.6 |  |  |  |  |  | 108 | 110 | 101 | 97.4 | 103 | 110 | 98.7 | 97.2 | 99.5 | 95.3 | 0 | > 10 | 94.5 | 102 | 99.4 | 106 | 106
5 | O=C(O)C(Cl)Cl [dichloroacetate] | 0 | 0 |  | 0 | > 10 | > 10 |  | > 10 | 111 | 104 | 110 | 93.2 | 102 | 104 | 96.2 | 97.4 | 96 | 99.6 |  |  |  |  |  | 102 | 106 | 116 | 97.3 | 98.6 | 0 | > 10 | 104 | 96.3 | 96.1 | 104 | 96
6 | COc1ccc(C(=O)c2ccccc2O)c(O)c1 [dioxybenzone] | 0 | 0 | 0 | 0 | > 10 | > 10 | > 10 | > 10 | 102 | 92 | 96.9 | 96 | 99.3 | 103 | 99 | 100 | 105 | 102 | 106 | 93.3 | 97.7 | 91.1 | 106 | 101 | 91 | 106 | 98.7 | 101 | 1.6 |  | 110 | 73.6 | 92.4 | 99.4 | 67.2
7 | Cc1nc(-c2ccc(OCC(C)C)c(C#N)c2)sc1C(=O)O [febuxostat] | 0 | 0 |  | 0 | > 10 | > 10 |  | > 10 | 112 | 96.8 | 107 | 96.8 | 94.1 | 92.8 | 99.9 | 97.2 | 102 | 106 |  |  |  |  |  | 93.5 | 94 | 104 | 98.6 | 96.1 | 0 | > 10 | 94.3 | 98.5 | 100 | 101 | 96.4
8 | CCOCc1cc(OC)c(-c2ccc(C[C@H](NC(=O)c3c(F)cccc3F)C(=O)O)cc2)c(OC)c1 [firategrast] | 0 |  | 0 | 0 | > 10 |  | > 10 | > 10 | 104 | 105 | 90.3 | 99.3 | 96.6 |  |  |  |  |  | 103 | 94.1 | 86.4 | 99.7 | 98.5 | 99.3 | 94.6 | 104 | 93.9 | 101 | 0 | > 10 | 96.3 | 101 | 98.5 | 101 | 98
9 | C[N+](C)(C)CCCCCC[N+](C)(C)C [hexamethonium] | 0 | 0 | 0 | 0 | > 10 | > 10 | > 10 | > 10 | 109 | 96.7 | 97.6 | 95.3 | 96.6 | 100 | 102 | 96.2 | 103 | 99.8 | 86.3 | 97.1 | 101 | 108 | 103 | 97.3 | 104 | 98.2 | 99.4 | 100 |  |  |  |  |  |  | 
10 | O=C(O)C1=CCNCC1 [isoguvacine] | 0 |  | 0 | 0 | > 10 |  | > 10 | > 10 | 91 | 98.5 | 91.9 | 96.1 | 95 |  |  |  |  |  | 105 | 99.1 | 104 | 94.5 | 94.4 | 106 | 99.5 | 108 | 106 | 98.7 | 0 | > 10 | 101 | 103 | 100 | 99.4 | 98.2
11 | CCCCCCCCCCCC(=O)N(CCO)CCO [lauric-diethanolamide] | 0 | 0 |  | 0 | > 10 | > 10 |  | > 10 | 94 | 99.1 | 93.5 | 96.8 | 90.1 | 99.4 | 95.9 | 101 | 98.5 | 102 |  |  |  |  |  | 107 | 90.1 | 98.7 | 92.7 | 101 | 0 | > 10 | 104 | 101 | 103 | 102 | 97.3
12 | CC(=O)c1cc2c(o1)C(=O)c1ccccc1C2=O [napabucasin] | 18.4 | 5.8 | 1.8 | 10.7 | 0.291 | 3.07 |  | 1.13 | 102 | 109 | 97.1 | -0.9 | -0.3 | 102 | 98.5 | 102 | 98.9 | -0.4 | 124 | 109 | 101 | 106 | 56.4 | 103 | 98.5 | 95.3 | 55.8 | 0.5 | 7.4 | 2.24 | 88.7 | 99.5 | 89.6 | 88.8 | -0.4
13 | CC(=O)O[C@H]1C[C@@H]2CC[C@@H]3[C@H](CC[C@@]4(C)[C@H]3C[C@H]([N+]3(C)CCCCC3)[C@@H]4OC(C)=O)[C@@]2(C)C[C@@H]1[N+]1(C)CCCCC1 [pancuronium] | 0 |  | 0 | 0 | > 10 |  | > 10 | > 10 | 98.2 | 103 | 101 | 106 | 102 |  |  |  |  |  | 114 | 101 | 103 | 104 | 99.5 | 106 | 99.9 | 97.8 | 97.5 | 94.1 | 0 | > 10 | 102 | 102 | 106 | 101 | 97.9
14 | Cc1ccc(N(CC2=NCCN2)c2cccc(O)c2)cc1 [phentolamine] | 0 | 0 | 0 | 0 | > 10 | > 10 | > 10 | > 10 | 96.8 | 96.5 | 106 | 106 | 104 | 99.3 | 100 | 94.7 | 101 | 97.3 | 99.8 | 103 | 105 | 93.5 | 106 | 99 | 98.8 | 109 | 97.4 | 91.1 |  |  |  |  |  |  | 
15 | CC(N)C12CC3CC(CC(C3)C1)C2 (stereo not given) [rimantadine] | 0 | 0 | 0 | 0 | > 10 | > 10 | > 10 | > 10 | 93.6 | 108 | 100 | 101 | 103 | 95.3 | 98 | 101 | 102 | 104 | 91 | 84.1 | 82.5 | 96.6 | 95.6 | 101 | 94.6 | 101 | 103 | 103 |  |  |  |  |  |  | 
16 | Cc1ccc(C(=O)c2ccc(CC(=O)O)n2C)cc1 [tolmetin] | 0 | 0 | 0 | 0 | > 10 | > 10 | > 10 | > 10 | 109 | 109 | 100 | 108 | 93.7 | 96.8 | 102 | 92.4 | 97.8 | 102 | 88.7 | 97.8 | 92.4 | 90.9 | 96.6 | 90.4 | 94.6 | 94.6 | 90.7 | 105 |  |  |  |  |  |  | 

From the supplement of paper PMC13380429
